Experiments:
Type in all cases: cell-based, human
[1] = test system: IL-1β, IL-6 and CXCL8 mRNA; experiment: Inhibition of blue light-induced inflammatory gene expression (real-time PCR); settings: A2E and blue light; P<0.05; FIG. 5
Method: ARPE-19 cell lines were seeded in 6-well plates at a concentration of 2×10^4 cells/well and cultured for 24 hours. The process of accumulating A2E in ARPE-19 cell lines, irradiating with blue light, and treating with example 17 compound of the present invention was performed in the same manner as in Experimental Example 5. After 24 hours of irradiating with blue light, total RNA was isolated from ARPE-19 cells using Trizol reagent (Invitrogen), and total RNA was quantified using Nanodrop (Nanodrop, Thermo Scientific). Thereafter, cDNA was synthesized using […] of total RNA, and the cDNA was amplified using the primers described in Table 5 below as a template and a real-time genetic cycler LC480 (Roche) (PCR conditions: denaturation −95° C., 10 seconds; primer binding −60° C., 10 seconds; and extension −72° C., 10 seconds).
At this time, the PCR results for 18S were used as a control to correct the relative amount of genes measured in the ARPE-19 cell line, and the experimental results are shown in FIG. 5.

LC3-II (autophagy flux) = experiment: Autophagy flux in ARPE-19 with or without bafilomycin A1; settings: 10, 25, 50 μM, 12 h, bafilomycin A1 2 nM 4 h, FIG. 7
Method: Autophagy flux was measured by comparing the degree of change in LC3-II protein formation by treatment with example 17 compound of the present invention in the presence and absence of bafilomycin A1 (Abcam, Cambridge, United Kingdom) by Western blotting (Seranova E. et al. Autophagy: Methods and Protocols, Methods in Molecular Biology, vol. 1880, pp 389-428, 2019, https://doi.org/10.1007/978-1-4939-8873-0_26).
The autophagy flux measurement in this experiment used saturating concentrations of bafilomycin A1, known as an autophagy inhibitor. […] Therefore, the effect of the example compound of the present invention on autophagy flux can be determined by examining the level of LC3-II following treatment with the example compound of the present invention in the presence or absence of saturating concentrations of bafilomycin A1.
Specifically, in this experiment, ARPE-19 cell lines were seeded in 6-well plates at a concentration of 1×10^5 cells/well and cultured for 24 hours. […] The LC3-II level was measured by the Western immunoblotting method using a specific anti-LC3-II antibody (Cell Signaling Technology, MA, USA). Meanwhile, after treating with example 17 compound in the same manner as above under the condition of treating with bafilomycin A1 at a concentration of 2 nM for 4 hours, the amount of LC3-II was measured by the Western immunoblotting method. […]

p62 protein = experiment: Restoration of autophagy inhibited by A2E and blue light (p62 Western); settings: ARPE-19, A2E accumulation and blue light; FIG. 10
From the text: Therefore, it was confirmed whether the compound of the present invention can restore autophagy inhibited by A2E and blue light.
During the autophagosome formation process, p62 specifically binds to a substance to be degraded and simultaneously binds to LC3 protein to form an autophagosome. When autophagy is inhibited, aggregates composed of p62 and ubiquitinated proteins are formed and p62 accumulates in the cell. Therefore, by measuring the change in the level of intracellular p62, the improvement effect of the compound of the present invention on autophagy inhibited by A2E and blue light can be evaluated, and the experiment was conducted as follows.
Specifically, ARPE-19 cells were seeded into 6-well plates at a concentration of 2×10^4 cells/well and cultured for 24 hours. To induce A2E accumulation in the ARPE-19 cell line, the cells were treated with A2E three times at a concentration of 25 μM at 48-hour intervals. 24 hours after the final A2E treatment, the cells were treated with example 17 compound twice at 24-hour intervals each. […] The amount of intracellular p62 was measured by Western immunoblotting using an anti-p62 antibody (Santa Cruz, TX, USA). The amount of intracellular β-actin was measured in the same manner using anti-β-actin antibody (Santa Cruz) and used as a control.

[2] = test system: p62 protein phosphorylated at serine 349 (p-p62 (S349)); experiment: Autophagy activation by increase of p-p62 (S349), Western immunoblotting; settings: indicated concentrations; FIG. 14
Method: The cells were treated with the test compounds at the indicated concentrations, and the autophagy activation effect through the increase of p62 protein (p-p62 (S349)) phosphorylated at serine 349 residue was measured by Western immunoblotting using an anti-p-p62 antibody, and the results are shown in FIG. 14. The increase in the intracellular P-p62 ([…]) level is one of the major indicators of autophagy activation.

C=CCOCc1cc(-c2cc(CC=C)ccc2OC)no1 [Example 17, 3-(5-allyl-2-methoxyphenyl)-5-((allyloxy)methyl)isoxazole]
expression of mRNA of inflammation-related genes (IL-1β, IL-6, and CXCL8) [1]: statistically significant reduction | autophagy flux (difference in LC3-II with/without bafilomycin A1) (LC3-II (autophagy flux)): significantly increases autophagy flux | p62 protein concentration (p62 protein): decreased in a concentration-dependent manner | autophagy activation through increase of p-p62 (S349) [2]: activated autophagy in a concentration-dependent manner

From patent US20250214951A1, “3-PHENYLISOXAZOLE DERIVATIVE, AND PHARMACEUTICAL COMPOSITION FOR PREVENTING OR TREATING EYE DISEASE, CONTAINING SAME AS ACTIVE INGREDIENT” (VASTHERA CO., LTD., priority 2022, published 2025)
